In PubChem BioAssay (NCI):
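The compound was tested at five concentrations on cells cultured in 96-well plates, with a 48-hour exposure period. TGI: concentration producing complete growth inhibition.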

Experiments:
Assay in all cases: NCI tumour cell line growth inhibition, 48 h
SW-620 colon = tested on: SW-620 colon
OVCAR-3 ovarian = tested on: OVCAR-3 ovarian
UO-31 renal = tested on: UO-31 renal
HOP-92 NSCLC = tested on: HOP-92 NSCLC
HOP-18 NSCLC = tested on: HOP-18 NSCLC
MALME-3M melanoma = tested on: MALME-3M melanoma
DMS 114 small cell lung = tested on: DMS 114 small cell lung
U251 CNS = tested on: U251 CNS
LXFL 529 NSCLC = tested on: LXFL 529 NSCLC
ACHN renal = tested on: ACHN renal
RXF 393 renal = tested on: RXF 393 renal
HT29 colon = tested on: HT29 colon
NCI-H226 lung = tested on: NCI-H226 lung
OVCAR-5 ovarian = tested on: OVCAR-5 ovarian
IGROV1 ovarian = tested on: IGROV1 ovarian
NCI-H460 lung = tested on: NCI-H460 lung
SR leukemia = tested on: SR leukemia
HCT-116 colon = tested on: HCT-116 colon
SK-OV-3 ovarian = tested on: SK-OV-3 ovarian
SF-268 CNS = tested on: SF-268 CNS
KM12 colon = tested on: KM12 colon
OVCAR-8 ovarian = tested on: OVCAR-8 ovarian
COLO 205 colon = tested on: COLO 205 colon
A549 NSCLC = tested on: A549 NSCLC
M14 melanoma = tested on: M14 melanoma
SK-MEL-5 melanoma = tested on: SK-MEL-5 melanoma
786-0 renal = tested on: 786-0 renal
LOX IMVI melanoma = tested on: LOX IMVI melanoma
HCT-15 colon = tested on: HCT-15 colon
KM20L2 colon = tested on: KM20L2 colon
HCC-2998 colon = tested on: HCC-2998 colon
UACC-257 melanoma = tested on: UACC-257 melanoma
RXF-631 renal = tested on: RXF-631 renal
SNB-78 CNS = tested on: SNB-78 CNS
M19-MEL melanoma = tested on: M19-MEL melanoma
HOP-62 NSCLC = tested on: HOP-62 NSCLC
EKVX NSCLC = tested on: EKVX NSCLC
SF-539 CNS = tested on: SF-539 CNS
TK-10 renal = tested on: TK-10 renal
HL-60(TB) leukemia = tested on: HL-60(TB) leukemia
UACC-62 melanoma = tested on: UACC-62 melanoma
SNB-75 CNS = tested on: SNB-75 CNS
XF 498 CNS = tested on: XF 498 CNS
SK-MEL-28 melanoma = tested on: SK-MEL-28 melanoma
NCI-H522 lung = tested on: NCI-H522 lung
SNB-19 CNS = tested on: SNB-19 CNS
SF-295 CNS = tested on: SF-295 CNS
SN12C renal = tested on: SN12C renal
K-562 leukemia = tested on: K-562 leukemia
OVCAR-4 ovarian = tested on: OVCAR-4 ovarian
A498 renal = tested on: A498 renal
DLD-1 colon = tested on: DLD-1 colon
NCI-H23 lung = tested on: NCI-H23 lung
CAKI-1 renal = tested on: CAKI-1 renal
CCRF-CEM leukemia = tested on: CCRF-CEM leukemia

Measured: TGI

N#Cc1ccccc1NC(=O)C(=O)C(C(=O)c1ccncc1)C1OC(=O)c2ccccc21 (stereo not given)
> 100 µM: all assays above
